Test results reported in patent publication US4442214A, “Thermo-stable micro-organism” (Development Finance Corporation of New Zealand, priority 1979, dated 1984).
Read-outs that look alike come from different tables or passages of the source.

Key:
[1] = system: NADH and succinate oxidases; assay: Oxidase system activities (oxygen uptake) with inhibitors; assay type: biochemical; conditions: THERMUS T-351 oxidase systems
Description: Oxygen uptake was measured polarographically using a Rank electrode (Rank Brothers, Bottisham, Cambridge, England). The reaction mixture consisted of 0.1 M KH2 PO4 /Na2 HPO4 buffer pH 7.0, a suitable amount of membrane particle protein, 50 μmol of substrate (except in the case of NADH were 5 μmol were used), in a final volume of 2.5 ml.
Buffers were equilibrated at the desired temperature with sparged air for 30 minutes.
Particles were equilibrated in the electrode for 2 minutes prior to measurement of oxygen uptake. Rates were measured over the first minute.

CALDOLYSIN = assay: Response of CALDOLYSIN to inhibitors; assay type: biochemical, THERMUS T-351
[2] = 80° C.; published data; cited from earlier work

Molecule	relative effect on NADH oxidase and succinate oxidase [1]	other results
CCCCCCCc1cc(O)c2ccccc2[n+]1[O-] [2-heptyl-4-hydroxyquinoline-N-oxide]	more effective inhibitors of succinate oxidase	–
c1ccc(-c2ccnc3c2ccc2c(-c4ccccc4)ccnc23)cc1 [Bathophenanthroline]	more effective inhibitors of succinate oxidase	–
O=C(O)CN(CCOCCOCCN(CC(=O)O)CC(=O)O)CC(=O)O [EGTA]	–	% Inhibitor of Activity (CALDOLYSIN; inhibitor 1 mM): 18%; % Inhibitor of Activity (CALDOLYSIN; inhibitor 10 mM): 45%
O=C(O)CI [Iodoacetic acid]	–	% Inhibitor of Activity (CALDOLYSIN): 60%
O=S(=O)(F)Cc1ccccc1 [Phenylmethyl Sulfonyl Fluoride]	–	% Inhibitor of Activity (CALDOLYSIN; inhibitor 10 mM): 10%
C=C(C)[C@H]1Cc2c(ccc3c2O[C@@H]2COc4cc(OC)c(OC)cc4[C@@H]2C3=O)O1 [Rotenone]	more effect on the NADH oxidase	–
CCC1(CCC(C)C)C(=O)NC(=O)NC1=O [amytal]	affected NADH and succinate oxidases equally	–
antimycin A	more effective inhibitors of succinate oxidase	–
THERMOLYSIN: thermophilic protease from BACILLUS THERMOPROTEOLYTICUS, published data (protein, UniProt P00800 233-548, looked up) Thermolysin: ITGTSTVGVGRGVLGDQKNINTTYSTYYYLQDNTRGNGIFTYDAKYRTTLPGSLWADADNQFFASYDAPAVDAHYYAGVTYDYYKNVHNRLSYDGNNAAIRSSVHYSQGYNNAFWNGSQMVYGDGDGQTFIPLSGGIDVVAHELTHAVTDYTAGLIYQNESGAINEAISDIFGTLVEFYANKNPDWEIGEDVYTPGISGDSLRSMSDPAKYGDPDHYSKRYTGTQDNGGVHINSGIINKAAYLISQGGTHYGVSVVGIGRDKLGKIFYRALTQYLTPTSNFSQLRAAAVQSATDLYGSTSQEVASVKQAFDAVGVK	–	HALF-LIFE [2]: 1 h
